Source: US7851474B2, “Dipiperazinyl ketones and related analogues” (Neurogen Corporation, priority 2005, dated 2010)
pKi: −log10 of the molar value.

What follows are compounds tested against T1, chimeric human H3 receptor (Homo sapiens, UniProt Q9Y5N1, E19D) (assay: Chimeric human H3 receptor GTP binding assay (agonist-stimulated GTP-gamma35S binding, Example 7)). Settings: Table II; assay of Example 7; "*" in Ki; read-out: Ki.
T1 construct: made in house; host or cells: Sf9 insect cells (baculovirus infection); P2 membrane preparation
T1 sequence (Q9Y5N1 with tags, fused parts or gaps E19D): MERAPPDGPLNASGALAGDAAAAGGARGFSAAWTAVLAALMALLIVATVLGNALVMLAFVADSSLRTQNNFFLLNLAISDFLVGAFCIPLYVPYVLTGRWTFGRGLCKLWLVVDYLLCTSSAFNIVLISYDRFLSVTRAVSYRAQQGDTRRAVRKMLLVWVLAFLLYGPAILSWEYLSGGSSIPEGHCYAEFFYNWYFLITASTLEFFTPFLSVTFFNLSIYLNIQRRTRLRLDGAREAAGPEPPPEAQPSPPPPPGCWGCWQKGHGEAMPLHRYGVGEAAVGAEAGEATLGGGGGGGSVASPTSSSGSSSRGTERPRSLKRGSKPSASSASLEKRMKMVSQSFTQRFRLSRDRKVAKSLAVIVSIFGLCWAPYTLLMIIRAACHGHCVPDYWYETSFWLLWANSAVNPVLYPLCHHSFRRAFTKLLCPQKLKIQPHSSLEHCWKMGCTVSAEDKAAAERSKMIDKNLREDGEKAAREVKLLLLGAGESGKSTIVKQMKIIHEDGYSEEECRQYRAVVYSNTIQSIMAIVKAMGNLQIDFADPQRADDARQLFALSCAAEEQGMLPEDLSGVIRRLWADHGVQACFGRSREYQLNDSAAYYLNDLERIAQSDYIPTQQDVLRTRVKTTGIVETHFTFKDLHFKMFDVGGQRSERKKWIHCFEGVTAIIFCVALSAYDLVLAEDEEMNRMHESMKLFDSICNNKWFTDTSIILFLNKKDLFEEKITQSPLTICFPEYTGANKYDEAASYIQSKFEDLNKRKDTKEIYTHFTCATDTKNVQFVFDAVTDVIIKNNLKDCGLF
Format: biochemical
Procedure, shortened: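 Sf9 membranes co-expressing the chimeric receptor and heterotrimeric G-protein subunits, 35 μg protein per tube, in pH 7.4 Tris buffer with 10 μM GDP. Test compounds at 10^−10 to 10^−6 M with 1 μM histamine, 60 min at room temperature. Filter-bound GTP-gamma^35S read by scintillation; IC50 from non-linear regression of dose-response curves.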
For `COc1ccc(N2CCN(CC(=O)N3CCN(C4CCC4)CC3)CC2C)cc1` (stereo not shown) [Compound 1103, 4-[2-(4-cyclobutylpiperazin-1-yl)-2-oxoethyl]-1-(4-methoxyphenyl)-2-methylpiperazine], the pKi was over 6.00. `Cc1cccc(N2CCN(CC(=O)N3CCN(C4CCC4)CC3)CC2C)c1` (stereo not shown) [Compound 1104, 4-[2-(4-cyclobutylpiperazin-1-yl)-2-oxoethyl]-2-methyl-1-(3-methylphenyl)piperazine] was tested, and the pKi was over 6.00. Compound `Cc1ccc(N2CCN(CC(=O)N3CCN(C4CCC4)CC3)CC2C)cc1` (stereo not shown) [Compound 1105, 4-[2-(4-cyclobutylpiperazin-1-yl)-2-oxoethyl]-2-methyl-1-(4-methylphenyl)piperazine] has a pKi of over 6.00. `COc1ccc(N2CCN(CC(=O)N3CCN(C4CCCCC4)CC3)CC2C)cc1` (stereo not shown) [Compound 1106, 4-[2-(4-cyclohexylpiperazin-1-yl)-2-oxoethyl]-1-(4-methoxyphenyl)-2-methylpiperazine] gave a pKi of over 6.00. With `Cc1ccc(N2CCN(CC(=O)N3CCN(C4CCCC4)CC3)CC2C)cc1` (stereo not shown) [Compound 1109, 4-[2-(4-cyclopentylpiperazin-1-yl)-2-oxoethyl]-2-methyl-1-(4-methylphenyl)piperazine] the pKi was over 6.00. `CCN1CCN(C(=O)CN2CCN(c3ccc(OC)cc3)C(C)C2)CC1` (stereo not shown) [Compound 1110, 4-[2-(4-ethylpiperazin-1-yl)-2-oxoethyl]-1-(4-methoxyphenyl)-2-methylpiperazine] gave a pKi of over 6.00. Compound `COc1ccc(N2CCN(CC(=O)N3CCN(C(C)C)CC3)CC2C)cc1` (stereo not shown) [Compound 1111, 4-[2-(4-isopropylpiperazin-1-yl)-2-oxoethyl]-1-(4-methoxyphenyl)-2-methylpiperazine] has a pKi of over 6.00. In the case of `CCC(C)N1CCN(C(=O)CN2CCN(c3ccc(OC)cc3)C(C)C2)CC1` (stereo not shown) [Compound 1113, 4-[2-(4-sec-butylpiperazin-1-yl)-2-oxoethyl]-1-(4-methoxyphenyl)-2-methylpiperazine], the pKi was over 6.00. `CCC(C)N1CCN(C(=O)CN2CCN(c3cccc(C)c3)C(C)C2)CC1` (stereo not shown) [Compound 1114, 4-[2-(4-sec-butylpiperazin-1-yl)-2-oxoethyl]-2-methyl-1-(3-methylphenyl)piperazine] gave a pKi of over 6.00. Compound `O=C(CN1CCC(N2CCOCC2)CC1)N1CCN(C2CCC2)CC1` [Compound 1115, 4-{1-[2-(4-cyclobutylpiperazin-1-yl)-2-oxoethyl]piperidin-4-yl}morpholine] has a pKi of over 6.00. `CCC(C)N1CCN(C(=O)CN2CCC(N3CCOCC3)CC2)CC1` (stereo not shown) [Compound 1116, 4-{1-[2-(4-sec-butylpiperazin-1-yl)-2-oxoethyl]piperidin-4-yl}morpholine] gave a pKi of over 6.00. Work on `CN(C)c1cccc(-c2ccc(N3CCN(CC(=O)N4CCN(C5CCC5)CC4)CC3)cc2)c1` [Compound 1117, 4′-{1-[2-(4-cyclobutylpiperazin-1-yl)-2-oxoethyl]piperazin-1-yl}-N,N-dimethylbiphenyl-3-amine] yielded a pKi of over 6.00. In the case of `N#Cc1cccc(-c2ccc(N3CCN(CC(=O)N4CCN(C5CCC5)CC4)CC3)cc2)c1` [Compound 1118, 4′-{1-[2-(4-cyclobutylpiperazin-1-yl)-2-oxoethyl]piperazin-1-yl}biphenyl-3-carbonitrile], the pKi was over 6.00. `N#Cc1ccc(-c2ccc(N3CCN(CC(=O)N4CCN(C5CCC5)CC4)CC3)cc2)cc1` [Compound 1119, 4′-{1-[2-(4-cyclobutylpiperazin-1-yl)-2-oxoethyl]piperazin-1-yl}biphenyl-4-carbonitrile] was tested, and the pKi was over 6.00. In the case of `O=C(O)c1ccc(N2CCN(CC(=O)N3CCN(C4CCC4)CC3)CC2)cc1` [Compound 1120, 4-{1-[2-(4-cyclobutylpiperazin-1-yl)-2-oxoethyl]piperazin-1-yl}benzoic acid], the pKi was over 6.00. `N#Cc1ccc(N2CCN(CC(=O)N3CCN(C4CCC4)CC3)CC2)cc1` [Compound 1121, 4-{1-[2-(4-cyclobutylpiperazin-1-yl)-2-oxoethyl]piperazin-1-yl}benzonitrile] was tested, and the pKi was over 6.00.
